Test results from ChEMBL document CHEMBL3994586, “Treatment of estrogen-dependent diseases: Design, synthesis and profiling of a selective 17β-HSD1 inhibitor with sub-nanomolar IC50 for a proof-of-principle study” (Eur J Med Chem, 2017).

Key:
[1] = biological target: T1, Estrogen receptor alpha (ERalpha) (Homo sapiens, UniProt P03372); experiment: Displacement of [3H]E2 from human recombinant ERalpha assessed as receptor binding at 3 uM after 16 to 20 hrs by liquid scintillation counting method relative to control; details: probe [3H]E2, read-out: Activity
T1 sequence (P03372 whole entry): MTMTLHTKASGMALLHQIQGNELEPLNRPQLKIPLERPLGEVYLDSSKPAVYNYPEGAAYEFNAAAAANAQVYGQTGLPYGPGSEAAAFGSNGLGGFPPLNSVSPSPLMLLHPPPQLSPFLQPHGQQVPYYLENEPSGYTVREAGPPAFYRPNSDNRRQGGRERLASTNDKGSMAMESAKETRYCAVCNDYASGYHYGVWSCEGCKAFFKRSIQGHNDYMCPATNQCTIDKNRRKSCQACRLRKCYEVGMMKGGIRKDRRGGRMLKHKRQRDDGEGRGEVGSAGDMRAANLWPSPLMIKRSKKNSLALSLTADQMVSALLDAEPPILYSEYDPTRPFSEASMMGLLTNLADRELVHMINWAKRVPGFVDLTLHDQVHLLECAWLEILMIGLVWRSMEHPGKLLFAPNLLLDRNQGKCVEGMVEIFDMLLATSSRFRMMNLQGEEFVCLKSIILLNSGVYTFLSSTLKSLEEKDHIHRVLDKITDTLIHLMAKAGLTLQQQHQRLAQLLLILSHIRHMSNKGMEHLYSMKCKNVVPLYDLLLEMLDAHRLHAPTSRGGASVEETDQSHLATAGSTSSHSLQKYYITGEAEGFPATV

[2] = biological target: Estrogen receptor beta (ERbeta) (Homo sapiens, UniProt Q92731); experiment: Displacement of [3H]E2 from human recombinant ERbeta assessed as receptor binding at 10 uM after 16 to 20 hrs by liquid scintillation counting method relative to control; details: probe [3H]E2, read-out: Activity
Chain of Estrogen receptor beta (ERbeta) (Q92731 whole entry): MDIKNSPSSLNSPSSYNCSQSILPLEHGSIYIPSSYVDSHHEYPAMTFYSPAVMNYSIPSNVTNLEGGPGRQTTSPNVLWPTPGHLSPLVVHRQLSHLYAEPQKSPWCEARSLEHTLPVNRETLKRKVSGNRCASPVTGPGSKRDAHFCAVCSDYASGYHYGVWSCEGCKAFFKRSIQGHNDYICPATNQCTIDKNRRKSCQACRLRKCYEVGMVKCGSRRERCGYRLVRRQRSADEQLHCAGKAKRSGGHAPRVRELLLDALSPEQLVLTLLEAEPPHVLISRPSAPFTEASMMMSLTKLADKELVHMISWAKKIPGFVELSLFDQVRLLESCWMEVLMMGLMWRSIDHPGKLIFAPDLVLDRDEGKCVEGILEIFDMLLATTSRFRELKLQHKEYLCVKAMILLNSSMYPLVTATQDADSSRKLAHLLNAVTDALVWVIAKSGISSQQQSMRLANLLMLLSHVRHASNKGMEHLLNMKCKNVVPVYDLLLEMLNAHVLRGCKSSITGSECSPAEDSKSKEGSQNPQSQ

[3] = biological target: T2, 17-beta-hydroxysteroid dehydrogenase type 2 (Homo sapiens, UniProt P37059); experiment: Inhibition of human placental microsomal 17beta-HSD2 using [2,4,6,7-3H]-E2 as substrate after 20 mins in presence of NAD+ by RP-HPLC method
T2 sequence (P37059 whole entry): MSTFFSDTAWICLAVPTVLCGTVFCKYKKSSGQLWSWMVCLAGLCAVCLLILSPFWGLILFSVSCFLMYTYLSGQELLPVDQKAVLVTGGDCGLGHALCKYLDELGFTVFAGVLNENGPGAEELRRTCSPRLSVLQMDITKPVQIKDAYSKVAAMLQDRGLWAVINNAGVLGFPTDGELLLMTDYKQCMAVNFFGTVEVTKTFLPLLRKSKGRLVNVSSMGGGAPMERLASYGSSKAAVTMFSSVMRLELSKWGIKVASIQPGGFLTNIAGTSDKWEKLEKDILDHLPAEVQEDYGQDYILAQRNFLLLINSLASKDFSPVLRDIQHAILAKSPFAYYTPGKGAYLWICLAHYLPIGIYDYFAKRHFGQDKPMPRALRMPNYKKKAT

[4] = biological target: T3, 17-beta-hydroxysteroid dehydrogenase type 1 (Homo sapiens, UniProt P14061); experiment: Inhibition of human placental cytosolic 17beta-HSD1 assessed as reduction in activation of [2,4,6,7-3H]-E1 substrate to E2 after 10 mins in presence of NADH by RP-HPLC method
T3 sequence (P14061 whole entry): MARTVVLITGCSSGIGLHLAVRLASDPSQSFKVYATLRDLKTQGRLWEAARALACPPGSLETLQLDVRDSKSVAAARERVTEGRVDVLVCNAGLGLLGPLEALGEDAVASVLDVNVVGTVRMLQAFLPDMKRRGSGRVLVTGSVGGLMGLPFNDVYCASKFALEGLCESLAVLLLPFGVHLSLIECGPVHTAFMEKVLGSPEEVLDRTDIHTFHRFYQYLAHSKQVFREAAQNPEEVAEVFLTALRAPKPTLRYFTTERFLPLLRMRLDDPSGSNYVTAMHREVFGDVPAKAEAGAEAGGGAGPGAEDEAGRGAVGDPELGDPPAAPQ

CYP1A2 = biological target: T4, CYP1A2 (Homo sapiens, UniProt P05177); experiment: Inhibition of recombinant human CYP1A2 expressed in baculovirus infected insect cell microsomes at 1 uM relative to control; assay type: ADME
T4 sequence (P05177 whole entry): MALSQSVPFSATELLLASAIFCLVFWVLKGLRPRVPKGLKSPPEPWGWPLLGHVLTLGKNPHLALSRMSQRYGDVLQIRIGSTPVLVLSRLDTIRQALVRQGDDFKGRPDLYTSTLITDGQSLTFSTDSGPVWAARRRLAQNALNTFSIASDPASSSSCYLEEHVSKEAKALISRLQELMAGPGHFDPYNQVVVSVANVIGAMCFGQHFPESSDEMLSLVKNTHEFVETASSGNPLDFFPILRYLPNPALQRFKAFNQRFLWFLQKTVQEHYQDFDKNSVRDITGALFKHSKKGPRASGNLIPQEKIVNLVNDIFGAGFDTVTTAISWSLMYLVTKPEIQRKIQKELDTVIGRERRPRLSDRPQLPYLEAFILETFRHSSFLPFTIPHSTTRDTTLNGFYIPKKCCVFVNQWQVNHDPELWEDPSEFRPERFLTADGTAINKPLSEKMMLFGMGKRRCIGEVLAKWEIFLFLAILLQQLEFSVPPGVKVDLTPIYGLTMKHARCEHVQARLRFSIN

PXR (NR1I2) = biological target: T5, PXR (NR1I2) (Homo sapiens, UniProt O75469); experiment: Agonist activity at recombinant human PXR at 3.16 uM by co-factor recruitment assay relative to control; assay type: ADME; details: read-out: Activity
T5 sequence (O75469 whole entry): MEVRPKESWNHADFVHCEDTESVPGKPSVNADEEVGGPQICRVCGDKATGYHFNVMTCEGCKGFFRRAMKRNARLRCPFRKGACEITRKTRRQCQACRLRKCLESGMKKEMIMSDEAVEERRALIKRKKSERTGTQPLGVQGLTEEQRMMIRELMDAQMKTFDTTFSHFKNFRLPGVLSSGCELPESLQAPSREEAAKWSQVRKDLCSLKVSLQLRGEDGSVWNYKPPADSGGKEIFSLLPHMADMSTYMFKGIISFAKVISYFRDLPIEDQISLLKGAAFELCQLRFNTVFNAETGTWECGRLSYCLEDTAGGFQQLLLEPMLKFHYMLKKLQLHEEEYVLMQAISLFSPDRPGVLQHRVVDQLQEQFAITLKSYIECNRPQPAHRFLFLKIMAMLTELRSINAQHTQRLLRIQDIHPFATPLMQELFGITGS

HEK293 = experiment: Cytotoxicity against HEK293 cells assessed as reduction in cell viability up to 5.6 uM after 66 hrs by MTT assay; assay type: cell-based; details: human, hek293, 66 h
CYP3A4 = CYP3A4 (Homo sapiens, UniProt P08684); experiment: Inhibition of recombinant human CYP3A4 expressed in baculovirus infected insect cell microsomes at 1 uM relative to control; assay type: ADME
Chain of CYP3A4 (P08684 whole entry): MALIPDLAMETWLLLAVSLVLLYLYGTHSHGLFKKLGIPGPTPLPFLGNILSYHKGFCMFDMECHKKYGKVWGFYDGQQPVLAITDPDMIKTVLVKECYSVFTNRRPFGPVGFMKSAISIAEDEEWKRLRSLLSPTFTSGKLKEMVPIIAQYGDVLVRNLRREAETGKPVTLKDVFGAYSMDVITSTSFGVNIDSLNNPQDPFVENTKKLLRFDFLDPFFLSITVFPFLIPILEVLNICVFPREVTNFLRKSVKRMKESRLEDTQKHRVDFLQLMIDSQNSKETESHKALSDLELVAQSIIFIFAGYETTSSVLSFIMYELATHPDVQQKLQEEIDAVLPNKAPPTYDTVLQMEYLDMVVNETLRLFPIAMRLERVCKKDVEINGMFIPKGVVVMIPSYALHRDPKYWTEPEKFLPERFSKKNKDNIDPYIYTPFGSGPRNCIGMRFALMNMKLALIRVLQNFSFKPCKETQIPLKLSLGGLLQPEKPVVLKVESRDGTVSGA

[5] = Selectivity index, ratio of IC20 for HEK293 cells to IC50 for human placental cytosolic 17beta-HSD1
Salmonella typhimurium [6] = experiment: Mutagenicity in Salmonella typhimurium TA98 up to 100 uM in presence of rat liver S9 fraction by Ames 2 assay; assay type: toxicity; details: salmonella enterica subsp. enterica serovar typhimurium
Salmonella typhimurium [7] = experiment: Mutagenicity in Salmonella typhimurium TA7001/7002/7003/7004/7005/7006 up to 100 uM in presence of rat liver S9 fraction by Ames 2 assay; assay type: toxicity; details: salmonella enterica subsp. enterica serovar typhimurium
CYP2C9 = CYP2C9 (Homo sapiens, UniProt P11712); experiment: Inhibition of recombinant human CYP2C9 expressed in baculovirus infected insect cell microsomes at 1 uM relative to control; assay type: ADME
Chain of CYP2C9 (P11712 whole entry): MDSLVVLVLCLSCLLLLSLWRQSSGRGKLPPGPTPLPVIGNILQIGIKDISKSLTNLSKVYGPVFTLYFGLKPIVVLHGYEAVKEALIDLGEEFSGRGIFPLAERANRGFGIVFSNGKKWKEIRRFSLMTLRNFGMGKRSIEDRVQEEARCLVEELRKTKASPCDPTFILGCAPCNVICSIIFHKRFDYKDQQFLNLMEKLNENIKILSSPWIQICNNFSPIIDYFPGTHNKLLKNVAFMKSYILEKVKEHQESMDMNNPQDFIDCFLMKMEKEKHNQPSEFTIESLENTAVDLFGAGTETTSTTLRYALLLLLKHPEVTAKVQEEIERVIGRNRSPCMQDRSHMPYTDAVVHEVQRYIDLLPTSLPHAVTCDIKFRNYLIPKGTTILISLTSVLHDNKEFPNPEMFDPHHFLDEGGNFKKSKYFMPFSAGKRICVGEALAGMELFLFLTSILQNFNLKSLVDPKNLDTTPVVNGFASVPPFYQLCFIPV

Salmonella typhimurium [8] = experiment: Mutagenicity in Salmonella typhimurium TA98 up to 100 uM by Ames 2 assay; assay type: toxicity; details: salmonella enterica subsp. enterica serovar typhimurium
Plasma [9] = experiment: Plasma concentration in Sprague-Dawley rat at 150 umol/kg, sc qd for 4 consecutive days measured on day 4 post dose by HPLC-MS analysis; assay type: ADME, organism-based; details: in vivo
CYP2B6 = biological target: T6, CYP2B6 (Homo sapiens, UniProt P20813); experiment: Inhibition of recombinant human CYP2B6 expressed in baculovirus infected insect cell microsomes at 1 uM relative to control; assay type: ADME
T6 sequence (P20813 whole entry): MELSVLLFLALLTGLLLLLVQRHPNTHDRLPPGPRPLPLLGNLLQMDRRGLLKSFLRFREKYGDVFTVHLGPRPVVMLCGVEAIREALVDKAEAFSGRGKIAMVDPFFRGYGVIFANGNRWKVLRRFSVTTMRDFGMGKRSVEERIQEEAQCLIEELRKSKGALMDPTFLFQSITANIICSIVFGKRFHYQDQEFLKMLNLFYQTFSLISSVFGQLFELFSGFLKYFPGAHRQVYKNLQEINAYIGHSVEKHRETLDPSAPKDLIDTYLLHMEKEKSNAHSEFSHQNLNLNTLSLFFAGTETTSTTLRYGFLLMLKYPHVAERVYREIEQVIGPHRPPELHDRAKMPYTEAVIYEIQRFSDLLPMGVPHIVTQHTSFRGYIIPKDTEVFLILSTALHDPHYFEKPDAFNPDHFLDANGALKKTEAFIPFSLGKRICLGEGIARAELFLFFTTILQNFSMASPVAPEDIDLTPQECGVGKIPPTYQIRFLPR

Salmonella typhimurium [10] = experiment: Mutagenicity in Salmonella typhimurium TA7001/7002/7003/7004/7005/7006 up to 100 uM by Ames 2 assay; assay type: toxicity; details: salmonella enterica subsp. enterica serovar typhimurium
Plasma [11] = experiment: Plasma concentration in Sprague-Dawley rat at 150 umol/kg, sc qd for 4 consecutive days measured on day 8 post dose by HPLC-MS analysis; assay type: ADME, organism-based; details: in vivo
CYP2C19 = CYP2C19 (Homo sapiens, UniProt P33261); experiment: Inhibition of recombinant human CYP2C19 expressed in baculovirus infected insect cell microsomes at 1 uM relative to control; assay type: ADME
Chain of CYP2C19 (P33261 whole entry): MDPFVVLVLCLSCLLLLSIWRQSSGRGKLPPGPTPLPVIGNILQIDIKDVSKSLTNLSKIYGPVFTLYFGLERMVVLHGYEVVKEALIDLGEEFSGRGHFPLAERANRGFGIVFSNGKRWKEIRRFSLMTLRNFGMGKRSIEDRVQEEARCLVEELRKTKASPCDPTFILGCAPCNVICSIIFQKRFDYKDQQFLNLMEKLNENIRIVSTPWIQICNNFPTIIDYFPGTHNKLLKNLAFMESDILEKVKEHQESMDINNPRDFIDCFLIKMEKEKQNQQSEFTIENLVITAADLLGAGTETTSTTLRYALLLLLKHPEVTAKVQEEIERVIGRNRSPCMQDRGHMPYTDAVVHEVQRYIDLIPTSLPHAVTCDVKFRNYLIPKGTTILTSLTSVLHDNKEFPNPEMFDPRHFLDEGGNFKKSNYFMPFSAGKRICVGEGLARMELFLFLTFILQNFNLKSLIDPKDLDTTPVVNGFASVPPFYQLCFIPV

CYP2D6 = CYP2D6 (Homo sapiens, UniProt P10635); experiment: Inhibition of recombinant human CYP2D6 expressed in baculovirus infected insect cell microsomes at 1 uM relative to control; assay type: ADME
Chain of CYP2D6 (P10635 whole entry): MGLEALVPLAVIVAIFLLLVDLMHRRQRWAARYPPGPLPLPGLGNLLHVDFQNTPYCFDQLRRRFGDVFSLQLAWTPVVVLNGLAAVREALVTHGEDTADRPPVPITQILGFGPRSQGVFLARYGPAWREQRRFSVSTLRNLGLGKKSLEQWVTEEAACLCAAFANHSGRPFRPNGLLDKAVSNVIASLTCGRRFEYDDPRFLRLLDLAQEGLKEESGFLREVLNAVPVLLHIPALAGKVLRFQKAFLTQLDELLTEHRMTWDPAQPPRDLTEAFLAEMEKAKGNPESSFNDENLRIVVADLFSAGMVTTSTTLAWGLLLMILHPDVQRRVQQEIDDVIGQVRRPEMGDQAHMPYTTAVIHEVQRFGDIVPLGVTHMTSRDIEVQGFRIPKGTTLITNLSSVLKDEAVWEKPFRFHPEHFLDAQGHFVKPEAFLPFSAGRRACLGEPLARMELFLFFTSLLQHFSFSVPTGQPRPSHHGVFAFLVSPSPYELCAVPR

Plasma [12] = experiment: Plasma concentration in Sprague-Dawley rat at 150 umol/kg, sc qd for 4 consecutive days measured on day 2 post dose by HPLC-MS analysis; assay type: ADME, organism-based; details: in vivo

SMILES: O=C(c1ccc(-c2ccc(O)c(Cl)c2)s1)c1c(F)ccc(O)c1F
- activity at 3 µM [1]: 73%
- activity at 10 µM [2]: 55%

SMILES: NS(=O)(=O)c1cccc(-c2ccc(C(=O)c3c(F)ccc(O)c3F)s2)c1
- IC50 [3]: 86 nM
- IC50 [4]: 55 nM

SMILES: O=C(c1ccc(-c2ccc(O)cc2)s1)c1c(F)ccc(O)c1F
- IC50 [3]: 71 nM
- IC50 [4]: 3 nM

SMILES: O=C(c1ccc(-c2ccc(F)cc2F)s1)c1cccc(O)c1F
- IC50 [3]: 55 nM
- IC50 [4]: 47 nM

SMILES: COc1ccc(-c2ccc(C(=O)c3c(F)ccc(O)c3F)s2)cc1
- IC50 [3]: 38 nM
- IC50 [4]: 18 nM

SMILES: O=C(c1ccc(-c2cc(Cl)c(O)c(Cn3ccnn3)c2)s1)c1c(F)ccc(O)c1F
- IC50 [3]: 26 nM
- IC50 [4]: 18 nM

SMILES: COc1c(C)cc(-c2ccc(C(=O)c3c(F)ccc(O)c3F)s2)cc1C
- activity at 3 µM [1]: 51%
- activity at 10 µM [2]: 69%

SMILES: COc1c(Cl)cc(-c2ccc(C(=O)c3c(F)ccc(O)c3F)s2)cc1Cl
- inhibition at 1 µM (CYP1A2): 11%
- activity at 3.16 µM (PXR (NR1I2)): < 5%
- Activity (HEK293): Non-Toxic
- inhibition at 1 µM (CYP3A4): 36%
- activity at 3 µM [1]: 27%
- Selectivity Index [5]: 11160
- Activity (Salmonella typhimurium [6]): Non-Toxic
- Activity (Salmonella typhimurium [7]): Non-Toxic
- inhibition at 1 µM (CYP2C9): 0%
- Activity (Salmonella typhimurium [8]): Non-Toxic
- concentration (Plasma [9]): 42 nM
- activity at 10 µM [2]: 8%
- IC50 [4]: 0.5 nM
- inhibition at 1 µM (CYP2B6): 4%
- Activity (Salmonella typhimurium [10]): Non-Toxic
- concentration (Plasma [11]): 72 nM
- inhibition at 1 µM (CYP2C19): 27%
- inhibition at 1 µM (CYP2D6): 0%
- concentration (Plasma [12]): 24 nM

SMILES: O=C(c1cccc(O)c1)c1ccc(-c2cc(Cl)c(O)c(Cl)c2)s1
- IC50 [3]: 540 nM
- IC50 [4]: 73 nM

SMILES: O=C(c1ccc(-c2ccccc2)s1)c1c(F)ccc(O)c1F
- IC50 [3]: 35 nM
- IC50 [4]: 11 nM

SMILES: O=C(c1cccc(O)c1)c1ccc(-c2ccc(F)cc2F)s1
- IC50 [3]: 140 nM
- IC50 [4]: 105 to 110 nM

SMILES: N#Cc1cc(-c2ccc(C(=O)c3c(F)ccc(O)c3F)s2)ccc1O
- activity at 3 µM [1]: 44%
- activity at 10 µM [2]: 6%

SMILES: COc1c(Cl)cc(-c2ccc(C(=O)c3cccc(O)c3)s2)cc1Cl
- activity at 3 µM [1]: 8%
- IC50 [3]: 250 nM
- activity at 10 µM [2]: 0%
- IC50 [4]: 6 nM

SMILES: O=C(c1ccc(-c2ccncc2)s1)c1c(F)ccc(O)c1F
- IC50 [3]: 39 nM
- IC50 [4]: 150 nM

SMILES: O=C(c1ccc(-c2cc(Cl)c(O)c(Cl)c2)s1)c1c(F)ccc(O)c1F
- activity at 3 µM [1]: 37%
- activity at 10 µM [2]: 11%

SMILES: NS(=O)(=O)c1ccc(-c2ccc(C(=O)c3c(F)ccc(O)c3F)s2)cc1
- IC50 [3]: 85 nM
- IC50 [4]: 150 nM

SMILES: COc1ccc(-c2ccc(C(=O)c3c(F)ccc(O)c3F)s2)cc1S(=O)(=O)N1CCOCC1
- activity at 3 µM [1]: 0%
- IC50 [3]: 180 nM
- activity at 10 µM [2]: 4%
- IC50 [4]: 130 nM

SMILES: Cc1cc(-c2ccc(C(=O)c3c(F)ccc(O)c3F)s2)cc(C)c1O
- activity at 3 µM [1]: 17%
- activity at 10 µM [2]: 22%

SMILES: O=C(c1ccc(-c2cccnc2)s1)c1c(F)ccc(O)c1F
- IC50 [3]: 47 nM
- IC50 [4]: 27 nM

SMILES: COc1c(C)cc(-c2ccc(C(=O)c3c(F)ccc(O)c3F)s2)cc1Cl
- IC50 [4]: 0.3 nM
